Experiments:
Type in all cases: in vivo
Ryegrass [1] = assay: Pre-emergence herbicidal activity (Example 31); parameters: key: 0-3 scale: 0 = 0-25% damage, 3 = 75-99% kill, 3+ = 100% kill; conditions: after three weeks
In short: (§1)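 Seeded soil boxes (seeds at 2 cm) were sprayed with water-diluted emulsifiable concentrates or milled suspensions, then held under glass. Three weeks later, visual scoring: 0 = 0–25% damage, 3 = 75–99% kill, 3+ = complete kill; unsprayed duplicate boxes as reference.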

Wheat [2] = assay: Pre-emergence herbicidal activity (Example 31); parameters: key: 0-3 scale: 0 = 0-25% damage, 3 = 75-99% kill, 3+ = 100% kill; conditions: 1 kg/ha, after three weeks
In short: as §1

Ipomea [3] = assay: Pre-emergence herbicidal activity (Example 31); conditions: after three weeks
In short: as §1

Japanese millet [4] = assay: Pre-emergence herbicidal activity (Example 31); conditions: after three weeks
In short: as §1

Mustard = assay: Pre-emergence herbicidal activity (Example 31); conditions: after three weeks
In short: as §1

Sunflower = assay: Pre-emergence herbicidal activity (Example 31); conditions: after three weeks
In short: as §1

Wild Oats [5] = assay: Pre-emergence herbicidal activity (Example 31); conditions: after three weeks
In short: as §1

Wheat [6] = assay: Post-emergence herbicidal activity (Example 32); parameters: key: 0-3 scale: 0 = 0-25% damage, 3 = 75-99% kill, 3+ = 100% kill; conditions: 3 weeks after spraying
In short: (§2)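 Glasshouse-grown seedlings reaching roughly 10–12.5 cm height were sprayed with water-diluted formulations, either toluene-based emulsifiable concentrates or ball-milled suspensions. After a further 3 weeks, injury was scored by eye against untreated plants: 0 = 0–25% damage, 3 = 75–99% kill, 3+ = complete kill.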

Ipomea [7] = assay: Post-emergence herbicidal activity (Example 32); conditions: 3 weeks after spraying
In short: as §2

Japanese millet [8] = assay: Post-emergence herbicidal activity (Example 32); conditions: 3 weeks after spraying
In short: as §2

Ryegrass [9] = assay: Post-emergence herbicidal activity (Example 32); conditions: 3 weeks after spraying
In short: as §2

Wild Oats [10] = assay: Post-emergence herbicidal activity (Example 32); conditions: 3 weeks after spraying
In short: as §2

Cotton (Deltapine) = assay: Selective herbicidal activity, young pot plants (Example 35); conditions: crop; post-emergence; 0.08 kg/ha; after 20 days; mean of triplicate
Method: (§3) The compounds were formulated for test by mixing an appropriate amount with 5 ml of an emulsion prepared by diluting 160 ml of a solution containing 21.8 g per litre of "Span" 80 and 78.2 g per litre of "Tween" 20 in methylcyclohexanone to 500 ml with water. "Span" 80 is a Trade Mark for a surface-active agent comprising sorbitan monolaurate. "Tween" 20 is a Trade Mark for a surface-active agent comprising a condensate of sorbitan monolaurate with 20 molar proportions of ethylene oxide. Each 5 ml emulsion containing a test compound was then diluted to 40 ml with water and sprayed on to young pot plants (post-emergence test) of the species named in Table 7 below. Damage to test plants was assessed after 20 days on a scale of 0 to 9 whereo 0 is 0 to 10% and 9 is 90 to 100% kill. The tests were carried out in triplicate and the mean results are recorded in Table 7 below.

Digitaria sanguinalis = assay: as above; conditions: weed; post-emergence; 0.08 kg/ha; after 20 days; mean of triplicate
Method: as §3

Echinochloa crus-galli = assay: as above; conditions: weed; post-emergence; 0.08 kg/ha; after 20 days; mean of triplicate
Method: as §3

Setaria viridis = assay: as above; conditions: weed; post-emergence; 0.08 kg/ha; after 20 days; mean of triplicate
Method: as §3

Sorghum halepense [11] = assay: as above; conditions: weed; post-emergence; 0.08 kg/ha; after 20 days; mean of triplicate
Method: as §3

Soyabean (Amsoy) = assay: as above; conditions: crop; post-emergence; 0.08 kg/ha; after 20 days; mean of triplicate
Method: as §3

Annual Rye Grass = assay: Selective herbicidal activity, seed boxes (Example 34); conditions: weed; 0.15 kg/ha; sprayed on one week old seedlings; 29 days after spraying; triplicate
Excerpt: (§4) The seeds of the test species were sprinkled onto . the surface of soil in seed boxes and covered with a thin layer of sand. The boxes were lightly watered with an overhead spray and placed in a glasshouse for one week to permit germination of the seeds and plant growth to a height of 4 to 5 inches. […] For comparison purposes at least one box containing one week old seedlings was sprayed lightly with water only. After spraying the boxes were returned to the glasshouse for a further 29 days after which the effect of the treatment was visually assessed.

Cotton = assay: as above; conditions: crop; 1.5 kg/ha; sprayed on one week old seedlings; 29 days after spraying; triplicate
Excerpt: as §4

Japanese millet [12] = assay: as above; conditions: weed; 0.15 kg/ha; sprayed on one week old seedlings; 29 days after spraying; triplicate
Excerpt: as §4

Setaria aviceps = assay: as above; conditions: weed; 0.15 kg/ha; sprayed on one week old seedlings; 29 days after spraying; triplicate
Excerpt: as §4

Sorghum halepense [13] = assay: as above; conditions: weed; 0.15 kg/ha; sprayed on one week old seedlings; 29 days after spraying; triplicate
Excerpt: as §4

Soyabean = assay: as above; conditions: crop; 1.5 kg/ha; sprayed on one week old seedlings; 29 days after spraying; triplicate
Excerpt: as §4

Wild Oats [14] = assay: as above; conditions: weed; 0.15 kg/ha; sprayed on one week old seedlings; 29 days after spraying; triplicate
Excerpt: as §4

How did the “damage to plants, Rg” value (Ryegrass [1]; 0.5 kg/ha) turn out when `COC(=O)C(C)Oc1ccc(Nc2ccc(C(F)(F)F)cc2[N+](=O)[O-])cc1` (stereo not drawn) [Compound 21, Methyl 2-[4-(2-nitro-4-trifluoromethylanilino)phenoxy]-propionate] was run?
The value was 3+ (3+ represents 100% kill).

And the “damage to plants, Rg” value (Ryegrass [1]; 1 kg/ha)?
The value was 3+ (3+ represents 100% kill).

What about the “damage to plants, Rg” value (Ryegrass [1]; 5 kg/ha) of the same molecule?
Its value is 3+ (3+ represents 100% kill).

What about the “damage to plants, Wh” value (Wheat [2]) of the same molecule?
Its value is 2.

What about the “damage to plants, Ip” value (Ipomea [3]; 0.5 kg/ha) of the same molecule?
Its value is 0 (0 represents from 0 to 25% damage).

And the “damage to plants, Ip” value (Ipomea [3]; 1 kg/ha)?
Its value is 0 (0 represents from 0 to 25% damage).

And the “damage to plants, Ip” value (Ipomea [3]; 5 kg/ha)?
The value was 0 (0 represents from 0 to 25% damage).

What about the “damage to plants, Jm” value (Japanese millet [4]; 0.5 kg/ha) of the same molecule?
The value was 3+ (3+ represents 100% kill).

And the “damage to plants, Jm” value (Japanese millet [4]; 1 kg/ha)?
The value was 3+ (3+ represents 100% kill).

What about the “damage to plants, Jm” value (Japanese millet [4]; 5 kg/ha) of the same molecule?
Its value is 3+ (3+ represents 100% kill).

What about the “damage to plants, Ms” value (Mustard; 0.5 kg/ha) of the same molecule?
Its value is 0 (0 represents from 0 to 25% damage).

And the “damage to plants, Ms” value (Mustard; 1 kg/ha)?
Its value is 0 (0 represents from 0 to 25% damage).

What about the “damage to plants, Ms” value (Mustard; 5 kg/ha) of the same molecule?
The value was 0 (0 represents from 0 to 25% damage).

What about the “damage to plants, Sf” value (Sunflower; 0.5 kg/ha) of the same molecule?
The value was 0 (0 represents from 0 to 25% damage).

And the “damage to plants, Sf” value (Sunflower; 1 kg/ha)?
The value was 0 (0 represents from 0 to 25% damage).

What about the “damage to plants, Sf” value (Sunflower; 5 kg/ha) of the same molecule?
The value was 0 (0 represents from 0 to 25% damage).

And the “damage to plants, Ot” value (Wild Oats [5]; 0.5 kg/ha)?
Its value is 3 (3 represents 75 to 99% kill).

What about the “damage to plants, Ot” value (Wild Oats [5]; 1 kg/ha) of the same molecule?
Its value is 3+ (3+ represents 100% kill).

What about the “damage to plants, Ot” value (Wild Oats [5]; 5 kg/ha) of the same molecule?
Its value is 3+ (3+ represents 100% kill).

And the “damage to plants, Wh” value (Wheat [6]; 1 kg/ha)?
Its value is 3 (3 represents 75 to 99% kill).

And the “damage to plants, Wh” value (Wheat [6]; 5 kg/ha)?
Its value is 3+ (3+ represents 100% kill).

And the “damage to plants, Ip” value (Ipomea [7]; 1 kg/ha)?
The value was 0 (0 represents 0 to 25% damage).

And the “damage to plants, Ip” value (Ipomea [7]; 5 kg/ha)?
The value was 2.

And the “damage to plants, Jm” value (Japanese millet [8]; 1 kg/ha)?
The value was 3+ (3+ represents 100% kill).

What about the “damage to plants, Jm” value (Japanese millet [8]; 5 kg/ha) of the same molecule?
The value was 3+ (3+ represents 100% kill).

What about the “damage to plants, Rg” value (Ryegrass [9]; 1 kg/ha) of the same molecule?
The value was 3+ (3+ represents 100% kill).

What about the “damage to plants, Rg” value (Ryegrass [9]; 5 kg/ha) of the same molecule?
Its value is 3+ (3+ represents 100% kill).

What about the “damage to plants, Ot” value (Wild Oats [10]; 1 kg/ha) of the same molecule?
The value was 3 (3 represents 75 to 99% kill).

And the “damage to plants, Ot” value (Wild Oats [10]; 5 kg/ha)?
Its value is 3+ (3+ represents 100% kill).

And the “damage to test plants, Ct” value (Cotton (Deltapine))?
Its value is 0 (0 is 0 to 10%).

What about the “damage to test plants, Dg” value (Digitaria sanguinalis) of the same molecule?
The value was 5.

What about the “damage to test plants, Ec” value (Echinochloa crus-galli) of the same molecule?
Its value is 5.

And the “damage to test plants, St” value (Setaria viridis)?
Its value is 8.

And the “damage to test plants, Sh” value (Sorghum halepense [11])?
Its value is 9 (9 is 90 to 100% kill).

And the “damage to test plants, Sy” value (Soyabean (Amsoy))?
Its value is 0 (0 is 0 to 10%).

Which “percentage damage, Rg” value (Annual Rye Grass) does the source give for `CC(Oc1ccc(Nc2ccc(C(F)(F)F)cc2[N+](=O)[O-])cc1)C(=O)[O-].[Na+]` (stereo not drawn) [Compound 65, 2-[4-(2-Nitro-4-trifluoromethylanilino)phenoxy]-propionic acid sodium salt] here?
Its value is 35 percentage.

What about the “percentage damage, Ct” value (Cotton) of the same molecule?
Its value is 0 percentage.

And the “percentage damage, Jm” value (Japanese millet [12])?
Its value is 100 percentage.

What about the “percentage damage, St” value (Setaria aviceps) of the same molecule?
The value was 50 percentage.

What about the “percentage damage, Sh” value (Sorghum halepense [13]) of the same molecule?
Its value is 80 percentage.

What about the “percentage damage, Sb” value (Soyabean) of the same molecule?
The value was 0 percentage.

And the “percentage damage, Ot” value (Wild Oats [14])?
Its value is 58 percentage.

What about the “damage to test plants, Ct” value (Cotton (Deltapine)) of the same molecule?
Its value is 0 (0 is 0 to 10%).

And the “damage to test plants, Dg” value (Digitaria sanguinalis)?
Its value is 3.

And the “damage to test plants, Ec” value (Echinochloa crus-galli)?
Its value is 9 (9 is 90 to 100% kill).

And the “damage to test plants, St” value (Setaria viridis)?
The value was 2.

And the “damage to test plants, Sh” value (Sorghum halepense [11])?
The value was 8.

And the “damage to test plants, Sy” value (Soyabean (Amsoy))?
Its value is 0 (0 is 0 to 10%).
